PMC4457528, “Identification of Novel Small Molecule Inhibitors of Oncogenic RET Kinase” (PLoS ONE, 2015)

Legend:
Test in all cases: KinomeScan kinase panel, single concentration 10 µM
Assay type in all cases: binding
[1] = target: T1, KinomeScan kinase panel (Homo sapiens, UniProt P22607, G697C); details: FGFR3(G697C), 10 µM; read-out: score (%)
T1 construct: purchased DiscoveRx (KinomeScan)

[2] = target: T2, KinomeScan kinase panel (Homo sapiens, UniProt Q9NRM7); details: LATS2, 10 µM
T2 construct: purchased DiscoveRx (KinomeScan)
T2 sequence (Q9NRM7 1-1088): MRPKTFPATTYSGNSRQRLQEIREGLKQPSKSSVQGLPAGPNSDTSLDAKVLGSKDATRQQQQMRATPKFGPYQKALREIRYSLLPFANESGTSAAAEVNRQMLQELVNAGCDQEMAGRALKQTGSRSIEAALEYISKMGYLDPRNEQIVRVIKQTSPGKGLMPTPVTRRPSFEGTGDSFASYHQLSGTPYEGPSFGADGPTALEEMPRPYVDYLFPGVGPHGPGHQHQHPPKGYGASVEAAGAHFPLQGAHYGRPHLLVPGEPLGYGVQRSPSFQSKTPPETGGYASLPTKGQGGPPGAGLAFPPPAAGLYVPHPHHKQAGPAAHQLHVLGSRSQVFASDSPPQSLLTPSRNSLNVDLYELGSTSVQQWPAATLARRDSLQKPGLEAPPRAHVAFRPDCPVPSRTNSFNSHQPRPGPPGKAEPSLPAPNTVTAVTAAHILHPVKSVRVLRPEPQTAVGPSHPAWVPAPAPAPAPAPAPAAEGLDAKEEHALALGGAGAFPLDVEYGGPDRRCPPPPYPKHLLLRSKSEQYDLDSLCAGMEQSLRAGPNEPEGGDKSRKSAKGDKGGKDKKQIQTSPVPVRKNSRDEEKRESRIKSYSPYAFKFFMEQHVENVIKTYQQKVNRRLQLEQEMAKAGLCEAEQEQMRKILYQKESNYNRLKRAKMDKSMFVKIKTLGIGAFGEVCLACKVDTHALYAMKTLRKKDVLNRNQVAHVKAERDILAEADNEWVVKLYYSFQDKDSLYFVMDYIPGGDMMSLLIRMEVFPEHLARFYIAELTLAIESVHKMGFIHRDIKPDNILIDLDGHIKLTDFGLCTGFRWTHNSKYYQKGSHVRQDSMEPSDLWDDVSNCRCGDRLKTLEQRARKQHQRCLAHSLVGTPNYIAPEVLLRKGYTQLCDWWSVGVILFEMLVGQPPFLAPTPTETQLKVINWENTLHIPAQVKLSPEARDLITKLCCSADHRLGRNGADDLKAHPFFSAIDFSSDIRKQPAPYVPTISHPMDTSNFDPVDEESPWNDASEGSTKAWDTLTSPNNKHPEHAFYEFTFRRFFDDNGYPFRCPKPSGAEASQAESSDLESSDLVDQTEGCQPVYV

[3] = target: T3, KinomeScan kinase panel (Homo sapiens, UniProt Q8TD19); details: NEK9, 10 µM; read-out: score (%)
T3 construct: purchased DiscoveRx (KinomeScan)
T3 sequence (Q8TD19 1-979): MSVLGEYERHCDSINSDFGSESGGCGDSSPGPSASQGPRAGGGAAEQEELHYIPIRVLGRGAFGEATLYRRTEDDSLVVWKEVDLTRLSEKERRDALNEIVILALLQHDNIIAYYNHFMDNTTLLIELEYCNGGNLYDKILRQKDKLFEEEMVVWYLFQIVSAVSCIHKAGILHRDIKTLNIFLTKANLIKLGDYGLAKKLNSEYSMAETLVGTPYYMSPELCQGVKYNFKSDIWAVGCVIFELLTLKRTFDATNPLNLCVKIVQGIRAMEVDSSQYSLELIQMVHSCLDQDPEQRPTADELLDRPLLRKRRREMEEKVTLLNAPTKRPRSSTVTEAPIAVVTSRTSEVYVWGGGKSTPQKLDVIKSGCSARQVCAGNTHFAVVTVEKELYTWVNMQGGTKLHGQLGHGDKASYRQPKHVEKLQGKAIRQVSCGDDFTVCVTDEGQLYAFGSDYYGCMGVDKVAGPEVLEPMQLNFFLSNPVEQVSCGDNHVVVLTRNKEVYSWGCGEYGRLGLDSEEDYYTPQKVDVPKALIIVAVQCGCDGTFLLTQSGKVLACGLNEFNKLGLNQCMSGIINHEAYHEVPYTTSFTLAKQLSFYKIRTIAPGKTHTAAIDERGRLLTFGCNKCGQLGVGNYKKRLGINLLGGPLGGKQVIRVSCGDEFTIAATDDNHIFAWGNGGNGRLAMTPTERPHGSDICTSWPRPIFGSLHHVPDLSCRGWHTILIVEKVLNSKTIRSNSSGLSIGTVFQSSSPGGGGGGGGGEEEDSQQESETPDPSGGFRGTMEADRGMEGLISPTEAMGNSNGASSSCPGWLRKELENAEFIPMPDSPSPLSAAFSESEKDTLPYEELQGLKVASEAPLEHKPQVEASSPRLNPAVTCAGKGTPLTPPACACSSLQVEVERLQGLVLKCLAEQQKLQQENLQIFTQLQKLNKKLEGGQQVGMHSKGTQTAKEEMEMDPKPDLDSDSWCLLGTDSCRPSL

[4] = target: T4, KinomeScan kinase panel (Homo sapiens, UniProt P51451); details: BLK, 10 µM; read-out: score (%)
T4 construct: purchased DiscoveRx (KinomeScan)
T4 sequence (P51451 whole entry): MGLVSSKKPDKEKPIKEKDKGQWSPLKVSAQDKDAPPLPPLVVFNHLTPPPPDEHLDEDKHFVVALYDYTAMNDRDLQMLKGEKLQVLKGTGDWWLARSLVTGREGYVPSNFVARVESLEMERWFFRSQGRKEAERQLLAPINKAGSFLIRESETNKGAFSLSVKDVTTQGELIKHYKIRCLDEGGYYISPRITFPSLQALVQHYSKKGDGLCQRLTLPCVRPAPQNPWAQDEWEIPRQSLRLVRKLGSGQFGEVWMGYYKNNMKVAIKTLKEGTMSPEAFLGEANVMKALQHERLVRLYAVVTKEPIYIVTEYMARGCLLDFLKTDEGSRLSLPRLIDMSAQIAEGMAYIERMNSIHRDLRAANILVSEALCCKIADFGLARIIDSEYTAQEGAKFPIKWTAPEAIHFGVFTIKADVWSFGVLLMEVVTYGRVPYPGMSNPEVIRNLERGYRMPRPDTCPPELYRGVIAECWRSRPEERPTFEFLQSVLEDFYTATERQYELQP

T1 sequence (P22607 23-806 G697C): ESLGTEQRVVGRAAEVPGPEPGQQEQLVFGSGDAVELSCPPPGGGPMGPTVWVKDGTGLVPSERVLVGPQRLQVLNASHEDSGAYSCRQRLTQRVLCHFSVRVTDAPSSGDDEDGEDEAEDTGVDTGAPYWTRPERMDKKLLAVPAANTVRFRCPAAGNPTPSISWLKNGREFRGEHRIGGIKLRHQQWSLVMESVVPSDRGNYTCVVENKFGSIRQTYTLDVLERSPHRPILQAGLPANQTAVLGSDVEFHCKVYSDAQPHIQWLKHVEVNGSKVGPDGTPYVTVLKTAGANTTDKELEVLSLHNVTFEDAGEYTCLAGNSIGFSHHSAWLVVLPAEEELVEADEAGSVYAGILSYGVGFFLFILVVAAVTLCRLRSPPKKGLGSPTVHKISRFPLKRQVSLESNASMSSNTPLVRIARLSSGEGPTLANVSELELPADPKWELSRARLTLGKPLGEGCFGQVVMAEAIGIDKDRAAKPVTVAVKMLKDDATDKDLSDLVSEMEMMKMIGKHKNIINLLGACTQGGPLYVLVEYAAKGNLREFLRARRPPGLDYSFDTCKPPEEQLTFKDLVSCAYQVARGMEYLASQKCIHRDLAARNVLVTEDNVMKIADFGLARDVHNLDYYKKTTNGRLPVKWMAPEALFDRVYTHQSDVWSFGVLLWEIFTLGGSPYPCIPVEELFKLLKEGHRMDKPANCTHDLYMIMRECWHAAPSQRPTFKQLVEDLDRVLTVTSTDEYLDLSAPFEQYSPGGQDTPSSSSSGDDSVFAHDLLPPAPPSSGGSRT

Row | Structure (SMILES) | remaining binding at 10 µM [1] [%] | score (%) [2] | remaining binding at 10 µM [3] [%] | remaining binding at 10 µM [4] [%]
1 | CCN1CCN(Cc2ccc(NC(=O)c3ccc(C)c(NC(=O)c4cncc(-c5cccs5)c4)c3)cc2C(F)(F)F)CC1 [ALW-II-41-27] | > 30 | nb (Hits values higher than 30% were considered negative (no binding: nb)) | > 30 | 0.1
2 | CCN1CCN(Cc2ccc(NC(=O)c3ccc(C)c(/C=C/c4cnc5[nH]ccc5c4Cl)c3)cc2C(F)(F)F)CC1 [HG-6-63-01, (E)-3-(2-(4-chloro-1H-pyrrolo[2,3-b]pyridin-5-yl)vinyl)-N-(4-((4-ethylpiperazin-1-yl)methyl)-3-(trifluoromethyl)phenyl)-4-methylbenzamide] | 2.4 | nb (Hits values higher than 30% were considered negative (no binding: nb)) | 28 | 0.2
3 | CCN1CCN(Cc2ccc(NC(=O)c3ccc(C)c(C#Cc4cccnc4)c3)cc2C(F)(F)F)CC1 [XMD15-44] | 0.05 | 7.6% | 41 | 0
